The values that follow are results of earlier work, collected in paper PMC9182199, “Borylated 2,3,4,5-Tetrachlorophthalimide and Their 2,3,4,5-Tetrachlorobenzamide Analogues: Synthesis, Their Glycosidase Inhibition and Anticancer Properties in View to Boron Neutron Capture Therapy” (Molecules, 2022).

For orientation: IC50 means the concentration that inhibits the measured activity by half. In general, LD50 refers to the dose at which mortality reaches 50%.

The target in one data set is T1, yeast α-glucosidase (Saccharomyces cerevisiae, UniProt P53341).
T1 construct: purchased Sigma
T1 sequence (P53341 whole entry): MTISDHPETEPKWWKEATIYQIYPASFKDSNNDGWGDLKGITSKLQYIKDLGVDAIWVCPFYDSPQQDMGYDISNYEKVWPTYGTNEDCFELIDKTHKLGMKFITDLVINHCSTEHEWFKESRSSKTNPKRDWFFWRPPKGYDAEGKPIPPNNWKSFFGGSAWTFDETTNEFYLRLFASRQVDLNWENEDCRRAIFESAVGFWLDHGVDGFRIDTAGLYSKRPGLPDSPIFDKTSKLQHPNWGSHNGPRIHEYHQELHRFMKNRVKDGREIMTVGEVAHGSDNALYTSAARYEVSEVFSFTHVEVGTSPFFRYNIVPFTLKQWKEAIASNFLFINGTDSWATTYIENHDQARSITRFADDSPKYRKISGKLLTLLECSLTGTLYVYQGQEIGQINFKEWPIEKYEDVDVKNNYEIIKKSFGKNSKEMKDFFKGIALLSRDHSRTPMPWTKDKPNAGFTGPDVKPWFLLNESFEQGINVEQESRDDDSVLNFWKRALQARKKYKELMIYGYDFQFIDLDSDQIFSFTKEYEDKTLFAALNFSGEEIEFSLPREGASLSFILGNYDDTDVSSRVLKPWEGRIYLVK
On the set-up: method as in PMID 18254235. The following applies: cited from earlier work.

The target of a further data set is maltase. Also noted: method as in PMID 18254235. The note with it: cited from earlier work.
In the next data set the test system is sucrase. Also noted: method as in PMID 18254235. The following applies: cited from earlier work.
In data set [1] the test system is human. The following applies: oral; cited from earlier work.
The subject of data set [2] is human. The note with it: 5 min; cited from earlier work.
For data set [3] the following is noted: cited from earlier work.
The test system of another data set is rat. On the set-up: method as in earlier work. The note with it: oral; cited from earlier work.

For `O=C1c2ccccc2C(=O)N1c1ccc([N+](=O)[O-])cc1[N+](=O)[O-]` [N-(2,4-dinitrophenyl)phthalimide], the IC50 was 158 µM at yeast α-glucosidase and 51 µM on maltase. Further, the inhibition of sucrase result in the data set with sucrase was “no inhibition”.

On to `c1ccccc1` [benzene], for which the “LD50 (lethal dose)” value in the data set on human [1] was 125 mg/kg. For the same compound, in the data set on human [2], the “LCLO (lethal concentration)” value was 20,000 ppm. For the same compound, in data set [3], the “Immediately Dangerous to Life and Health concentration” value was 500 ppm; the “Recommended Exposure Limit” value was 0.1 ppm.

For `OB(O)c1ccccc1` [phenylboronic acid], in the data set on rat, the LD50 is reported as 740 mg/kg.
